According to patent US5428021A, “Human leukocyte elastase (HLE) inhibitors, and related pharmaceutical compositions and methods of use” (SRI International, priority 1994, dated 1995):

Assays:
Type in all cases: biochemical
[1] = target: T1, Elastase (human neutrophil (HLE)) (Homo sapiens, UniProt P08246); experiment: Inhibition of human leukocyte (neutrophil) elastase, progress curve method (methoxy-Suc-Ala-Ala-Pro-Val-pNA substrate); conditions: for Ki / koff / kon: 25 mM HEPES, 1M NaCl, 0.1% BRIJ 35, pH 6.5, 25° C.; for kinact/KI: pH 6.5, read-out: kobs /[I] Enzyme; for kobs /[I] HLE / kobs /[I] Enzyme: relative selectivity, HLE over HLE
T1 construct: purchased Calbiochem
T1 sequence (P08246 30-267): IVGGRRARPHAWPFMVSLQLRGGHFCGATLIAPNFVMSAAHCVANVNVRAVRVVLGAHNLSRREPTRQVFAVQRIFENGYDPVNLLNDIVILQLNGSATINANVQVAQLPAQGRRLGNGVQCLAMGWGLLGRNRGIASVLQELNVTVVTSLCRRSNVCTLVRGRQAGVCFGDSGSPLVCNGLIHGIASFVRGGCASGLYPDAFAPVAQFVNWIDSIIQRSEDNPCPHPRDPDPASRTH
Protocol: (§1) Enzymes and their substrates, listed below, were obtained from Calbiochem.
(§2) Enzyme and substrate concentrations were chosen to obtain pseudo first order conditions for the entire timecourse, with uninhibited enzyme maintaining a constant rate of product formation for longer than the fifteen minute sampling time.
(§3) Additional compounds within the scope of the invention were evaluated using the progress curve method of Stein et al. to determine the kinetic constants kon, koff, as well as the pKi and relative selectivity for HLE over other serine proteases.

[2] = target: T2, Elastase (porcine pancreatic) (PPE) (Sus scrofa, UniProt P00772); experiment: Inhibition of porcine pancreatic elastase (PPE), progress curve method (Suc-Ala-Ala-Ala-pNA substrate); conditions: for kinact/KI: pH 7.5, read-out: kobs /[I] Enzyme; for kobs /[I] HLE / kobs /[I] Enzyme: relative selectivity, HLE over PPE
T2 construct: purchased Calbiochem
T2 sequence (P00772 27-266): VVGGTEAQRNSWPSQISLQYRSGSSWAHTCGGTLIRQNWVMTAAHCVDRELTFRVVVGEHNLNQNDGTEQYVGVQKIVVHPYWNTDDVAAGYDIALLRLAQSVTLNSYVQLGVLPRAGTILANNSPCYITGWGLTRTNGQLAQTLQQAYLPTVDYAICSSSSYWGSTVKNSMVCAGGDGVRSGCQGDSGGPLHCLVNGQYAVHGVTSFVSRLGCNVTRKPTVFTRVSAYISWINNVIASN
Protocol: as §1, §2, §3

[3] = target: T3, α Chymotrypsin (bovine pancreatic) (Bos taurus, UniProt P00766); experiment: Inhibition of chymotrypsin, progress curve method (Suc-Gly-Gly-Phe-pNA substrate); conditions: for kinact/KI: pH 7.5, read-out: kobs /[I] Enzyme; for kobs /[I] HLE / kobs /[I] Enzyme: relative selectivity, HLE over Chymotrypsin
T3 construct: purchased Calbiochem
Protocol: as §1
Suc--Gly--Gly--Phe--pNA
as §2, §3

[4] = target: T4, Trypsin (bovine pancreatic) (Bos taurus, UniProt P00760); experiment: Inhibition of trypsin, progress curve method (Bz-Arg-pNA substrate); conditions: for kinact/KI: pH 7.5, read-out: kobs /[I] Enzyme; for kobs /[I] HLE / kobs /[I] Enzyme: relative selectivity, HLE over Trypsin
T4 construct: purchased Calbiochem
T4 sequence (P00760 24-246): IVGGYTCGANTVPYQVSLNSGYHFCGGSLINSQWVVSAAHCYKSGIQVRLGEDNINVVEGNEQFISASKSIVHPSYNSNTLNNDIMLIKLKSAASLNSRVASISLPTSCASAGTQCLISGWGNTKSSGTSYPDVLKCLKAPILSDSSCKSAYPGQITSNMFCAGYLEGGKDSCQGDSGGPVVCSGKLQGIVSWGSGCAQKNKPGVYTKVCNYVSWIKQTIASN
Protocol: as §1, §2, §3

[5] = target: T5, Cathepsin-G (human neutrophil) (Homo sapiens, UniProt P08311); experiment: Inhibition of cathepsin G, progress curve method (Suc-Ala-Ala-Pro-Phe-pNA substrate); conditions: for kinact/KI: pH 6.5, read-out: kobs /[I] Enzyme; for kobs /[I] HLE / kobs /[I] Enzyme: relative selectivity, HLE over Cathepsin G
T5 construct: purchased Calbiochem
T5 sequence (P08311 21-255): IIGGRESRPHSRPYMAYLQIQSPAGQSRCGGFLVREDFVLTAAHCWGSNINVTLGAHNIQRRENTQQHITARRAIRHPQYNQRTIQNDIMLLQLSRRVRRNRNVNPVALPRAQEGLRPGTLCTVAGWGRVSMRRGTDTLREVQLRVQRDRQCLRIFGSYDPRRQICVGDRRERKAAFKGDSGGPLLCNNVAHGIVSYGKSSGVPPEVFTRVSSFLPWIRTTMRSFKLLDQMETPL
Protocol: as §1
Cathepsin-G (human neutrophil
Suc--Ala--Ala--Pro--Phe--
as §2, §3

Row | SMILES | Ki ([1]; HLE) [nM] | koff ([1]; pH 6.5, HLE) [s⁻¹] | kon ([1]; pH 6.5, HLE) [M⁻¹ s⁻¹] | kon ([1]; HLE) | kinact/KI [2] [M⁻¹ s⁻¹] | kobs /[I] HLE / kobs /[I] Enzyme [2] | kinact/KI [3] [M⁻¹ s⁻¹] | kobs /[I] HLE / kobs /[I] Enzyme [3] | koff ([1]; HLE) [s⁻¹] | kinact/KI [1] [M⁻¹ s⁻¹] | kobs /[I] HLE / kobs /[I] Enzyme [1] | kinact/KI [4] [M⁻¹ s⁻¹] | kobs /[I] HLE / kobs /[I] Enzyme [4] | kinact/KI [5] [M⁻¹ s⁻¹] | kobs /[I] HLE / kobs /[I] Enzyme [5]
1 | CCOc1nc2ccc(N)c(C)c2c(=O)o1 | 0.0145 | 2.3e-05 | 750000 |  |  |  |  |  |  |  |  |  |  |  | 
2 | CCOc1nc2ccc(C(C)NC(=O)[C@@H](NC(=O)OC(C)(C)C)C(C)C)c(C)c2c(=O)o1 (single isomer, unassigned) [7 Isomer A] | 0.0589 | 1.8e-05 |  | 304,000 M^-1 sec^-1 |  |  |  |  |  |  |  |  |  |  | 
3 | CCOc1nc2ccc(C(C)NC(=O)[C@@H](NC(=O)OC(C)(C)C)C(C)C)c(C)c2c(=O)o1 (single isomer, unassigned) [7 Isomer B] | 0.0145 |  |  | 1,100,000 M^-1 sec^-1 | 967 | 1140 | 2570 | 430 | 0.000016 | 1.1e+06 | 1 | 1550 | 710 | 967 | 1140
4 | CCOc1nc2ccc(NC(=O)CCNC(=O)OC(C)(C)C)c(C)c2c(=O)o1 [Example 2, 6-(N-tert-butyloxycarbonyl-β-alanyl)amino-5-methyl-2-ethoxy-4H-3,1-benzoxazin-4-one] | 1.1 | 0.000404 | 365000 |  | 2860 | 130 | 3500 | 100 |  | 365000 | 1 | 200 | 1830 | 460 | 790
5 | CCOc1nc2ccc(NC(=O)CCN(C)C(=O)OC(C)(C)C)c(C)c2c(=O)o1 [Example 3, 6-(N-tert-butyloxycarbonyl-N-methyl-β-alanyl)-amino-5-methyl-2-ethoxy-3,1-benzoxazin-4-one] | 1.32 | 0.00042 | 320000 |  |  |  |  |  |  |  |  |  |  |  | 
6 | CCOc1nc2ccc(N)c(CC)c2c(=O)o1 [Example 4] | 0.1 | 4.7e-05 | 470000 |  |  |  |  |  |  |  |  |  |  |  | 
7 | CCOc1nc2ccc(NC(=O)CCN(C)C(=O)OC(C)(C)C)c(CC)c2c(=O)o1 [Example 5, 6-(N-tert-butyloxycarbonyl-N-methyl-β-alanyl)-amino-5-ethyl-2-ethoxy-3,1-benzoxazin-4-one] | 0.107 | 3e-05 | 281000 |  |  |  |  |  |  |  |  |  |  |  | 
8 | CCOc1nc2ccc(NC(=O)CCN(C)S(=O)(=O)c3ccc(C)cc3)c(CC)c2c(=O)o1 [Example 6, 6-(N-4-methylbenzenesulfonyl-N-methyl-β-alanyl)-amino-5-ethyl-2-ethoxy-4H-3,1-benzoxazin-4-one] | 0.0933 | 6.9e-05 | 745000 |  | 3450 | 220 | 11900 | 60 |  | 745000 | 1 | 80 | 9312 | 340 | 2190
9 | CCOc1nc2ccc(C(C)NC(=O)[C@H](C)NC(=O)OC(C)(C)C)c(C)c2c(=O)o1 (stereo partly drawn) [Example 8, 6-[1-(N-tert-butyloxycarbonyl-L-alanyl)-aminoethyl]-2-ethyloxy-5-methyl-4H-3,1-benzoxazin-4-one] | 0.0331 | 1.7e-05 | 520000 |  |  |  |  |  |  |  |  |  |  |  | 
10 | CCOc1nc2cccc(C)c2c(=O)o1 [positive control, reference compound] | 0.513 | 7.2e-05 | 140000 |  |  |  |  |  |  |  |  |  |  |  | 
